Measurements: ChEMBL document CHEMBL4177617 (Bioorg Med Chem Lett, 2017)

system: not listed separately; assay: Inhibition of protease activity of Clostridium botulinum BoNT/A light chain using 66-mer SNAP-25 as substrate by LC-MS analysis; settings: not given

| Structure (SMILES) | IC50 |
| --- | --- |
| O=C(/C=C/c1ccc([N+](=O)[O-])cc1)Oc1ccccc1OC(=O)/C=C/c1ccc([N+](=O)[O-])cc1 | Not Active |
| O=Cc1ccc(/C=C/C(=O)Oc2ccccc2OC(=O)/C=C/c2ccc(C=O)cc2)cc1 | Not Active |
| O=C(/C=C/c1ccc(CO)cc1)Oc1ccccc1OC(=O)/C=C/c1ccc(CO)cc1 | Not Active |
| NCCc1ccc(OC(=O)c2ccc(O)c(O)c2)c(OC(=O)c2ccc(O)c(O)c2)c1 | Not Active |
| CC(=O)Oc1ccc(/C=C/C(=O)Oc2ccccc2OC(=O)/C=C/c2ccc(OC(C)=O)c(OC(C)=O)c2)cc1OC(C)=O | Not Active |

same assay, conditions: read-out: IC50

| Structure (SMILES) | IC50 [nM] |
| --- | --- |
| O=C(/C=C/c1ccc(O)c(O)c1)Oc1ccccc1OC(=O)/C=C/c1ccc(O)c(O)c1 | 490 |
| CC(C)OC(=O)[C@H](OC(=O)/C=C/c1ccc(O)c(O)c1)[C@@H](OC(=O)/C=C/c1ccc(O)c(O)c1)C(=O)OC(C)C | 2700 |
| O=C(Oc1ccccc1OC(=O)c1ccc(O)cc1)c1ccc(O)cc1 | 9500 |
| CC(C)(C)C(COC(=O)/C=C/c1ccc(O)c(O)c1)COC(=O)/C=C/c1ccc(O)c(O)c1 | 130 |
| COC(=O)c1ccc(OC(=O)/C=C/c2ccc(O)c(O)c2)c(OC(=O)/C=C/c2ccc(O)c(O)c2)c1 | 390 |
| O=C(/C=C/c1ccc(O)c(O)c1)O[C@H]1CCC[C@H]1OC(=O)/C=C/c1ccc(O)c(O)c1 | 2400 |
| O=C(/C=C/c1ccc(O)c(O)c1)OC/C=C\COC(=O)/C=C/c1ccc(O)c(O)c1 | 450 |
| O=C(/C=C/c1ccc(O)c(O)c1)O[C@H]1CCCC[C@H]1OC(=O)/C=C/c1ccc(O)c(O)c1 | 3200 |
| O=C(/C=C/c1ccc(O)c(O)c1)OCc1ccccc1COC(=O)/C=C/c1ccc(O)c(O)c1 | 1100 |
| O=C(/C=C/c1ccc(O)c(O)c1)O[C@@H]1CCCCC[C@H]1OC(=O)/C=C/c1ccc(O)c(O)c1 | 3200 |
| O=C(/C=C/c1ccc(O)c(O)c1)OCc1ccccc1OC(=O)/C=C/c1ccc(O)c(O)c1 | 140 |
| O=C(Oc1ccccc1OC(=O)c1ccc(O)c(O)c1)c1ccc(O)c(O)c1 | > 20000 |
| O=C(/C=C/c1ccc(O)c(O)c1)Nc1ccccc1NC(=O)/C=C/c1ccc(O)c(O)c1 | 3300 |
| O=C(/C=C/c1ccc(O)c(O)c1)OCC#CCOC(=O)/C=C/c1ccc(O)c(O)c1 | 410 |
| O=C(/C=C/c1cccc(O)c1)Oc1ccccc1OC(=O)/C=C/c1cccc(O)c1 | > 20000 |
| O=C(/C=C/c1ccc(O)c(O)c1)OC[C@@H]1C[C@@H]1COC(=O)/C=C/c1ccc(O)c(O)c1 | 130 |
| O=C(/C=C/c1ccc(O)c(O)c1)Oc1cccc(OC(=O)/C=C/c2ccc(O)c(O)c2)c1 | 560 |
| O=C(/C=C/c1ccc(O)c(O)c1)Oc1cccc2cccc(OC(=O)/C=C/c3ccc(O)c(O)c3)c12 | 50 |
| O=C(/C=C/c1ccc(O)c(O)c1)OC[C@H]1CC[C@H]1COC(=O)/C=C/c1ccc(O)c(O)c1 | 1700 |
| O=C(/C=C/c1ccc(O)c(O)c1)Oc1cc2c(cc1OC(=O)/C=C/c1ccc(O)c(O)c1)OCCO2 | 300 |

system: Clostridium botulinum; assay: Inhibition of protease activity of Clostridium botulinum BoNT/A light chain using 66-mer SNAP-25 as substrate by LC-MS analysis relative to control; settings: concentration not given here

| Structure (SMILES) | inhibition [%] |
| --- | --- |
| O=C(/C=C/c1ccc(O)c(O)c1)Oc1ccccc1OC(=O)/C=C/c1ccc(O)c(O)c1 | 96 |
| O=C(/C=C/c1ccc(O)c(O)c1)O[C@@H](C(=O)O)[C@@H](OC(=O)/C=C/c1ccc(O)c(O)c1)C(=O)O | 64 |
| O=C(/C=C/c1ccc(O)c(O)c1)OC[C@@H]1C[C@@H]1COC(=O)/C=C/c1ccc(O)c(O)c1 | 75 |
